Patent US20180338993A1, “TREATMENT OF HEPATITIS DELTA VIRUS INFECTION” (Eiger BioPharmaceuticals, Inc., priority 2014, published 2018)
Values after ≈ are worked out from the molar mass of the structure shown. Read-outs that look alike come from different tables or passages of the source.

Tests used:
[1] = Solubility in water, buffers and physiological fluids; assay type: physicochemical
Description: Tipifarnib is a methyl-quinolinone with a molecular formula of C27H22Cl2N4O and molecular weight of 489.40. […] These are safe and well tested excipients that are commonly used in marketed products. The film coatings of the tablets contain hypromellose, titanium dioxide, lactose monohydrate, polyethylene glycol, and triacetin. “Tipifarnib derivative” as used herein refers not only to R208176 but also to molecules closely structurally related to either tipifarnib or R208176 with similar pharmacologic activity against HDV; this term includes, for example and without limitation, compounds described in U.S. Pat. Nos. 6,169,096; 6,365,600; 6,420,387; 6,734,194; 6,743,805; 6,838,467; and 7,253,183.
R208176 is an off-white, non-hygroscopic and crystalline powder. It has a molecular weight of 501.4 Daltons and a molecular formula of C25H18Cl2N8.

[2] = cited from earlier work

solubility ([1]; 0.1 N HCl, simulated gastric fluid, read-out: solubility in 0.1 N HCl)	solubility in 0.1 N NaOH ([1]; 0.1 N NaOH)	solubility ([1]; aqueous buffer, citrate-HCl buffer pH 4, read-out: solubility in citrate-HCl buffer pH 4)	solubility in borate-HCl buffer pH 8 ([1]; borate-HCl buffer pH 8)	solubility in borate-KCl—NaOH buffer pH 10 ([1]; borate-KCl—NaOH buffer pH 10)	solubility in citrate-HCl buffer pH 2 ([1]; citrate-HCl buffer pH 2)	solubility in citrate-NaOH buffer pH 6 ([1]; citrate-NaOH buffer pH 6)	solubility ([1]; gastric fluid, simulated gastric fluid, read-out: solubility in gastric fluid)	solubility in intestinal fluid ([1]; intestinal fluid)	Structure (SMILES)	solubility in 0.1 N HCl ([1]; 0.1 N HCl)	solubility in citrate-HCl buffer ([1]; citrate-HCl buffer)	solubility in citrate-NaOH buffer ([1]; citrate-NaOH buffer)	solubility in phosphate buffers ([1]; phosphate buffers)	solubility in water [1]	DLTs at 200 mg BID ([2]; 200 mg BID dose, dosed for 200 days)	patients stopping treatment due to adverse events (grade 3 or 4) ([2]; 13 cancer patients)	Dose limiting toxicities ([2]; cancer patients, continuous oral BID dosing)	MTD ([2]; cancer patients, orally BID, continuous dosing for up to 56 days)	Most common AEs ([2]; cancer patients)
–	–	–	–	–	–	–	–	–	Cn1cncc1[C@@](N)(c1ccc(Cl)cc1)c1ccc2c(c1)c(-c1cccc(Cl)c1)cc(=O)n2C [tipifarnib, (R)-6-[amino(4-chlorophenyl)(1-methyl-1H-imidazol-5-yl)methyl]-4-(3-chlorophenyl)-1-methyl-2(1H)-quinolinone]	moderately soluble	slightly soluble	insoluble	insoluble	insoluble	No DLTs were observed	4 of 13	granulocytopenia and neuropathy	300 mg	gastrointestinal-related
10000 to 33000 µg/mL (≈ 19.9 to 65.8 mM)	practically insoluble	100 to 1000 µg/mL (≈ 0.199 to 1.99 mM)	practically insoluble	practically insoluble	slightly soluble	practically insoluble	10000 to 33000 µg/mL (≈ 19.9 to 65.8 mM)	practically insoluble	Cn1cncc1[C@@](N)(c1ccc(Cl)cc1)c1ccc2c(c1)c(-c1cccc(Cl)c1)nc1nnnn12 [R208176]	–	–	–	–	practically insoluble	–	–	–	–	–
